Several values for one entry are separate records, joined by “and”; a condition that tells them apart may be missing. Equal values may be shown once.
Experiments:
[1] = tested on: PRAP expression in HT29 cells; test: Real time RT-PCR of PRAP expression in HT29 cells treated with TSA, DAC or both; type: cell-based, human; conditions: HT29, 72 h, TSA (300 ng), DAC (1 μm); for PRAPcp-GAPDHcp: crossing point of PRAP normalized by GAPDH: untreated 12.63
Protocol: (§1) Sigma), trichostatin A (TSA, 300 nM; Sigma) or a combination of both drugs for 72 hours. For the combined treatment, cells were treated with 1 μM DAC for 24 h followed by the addition of 300 nM TSA for another 48 h. Total RNA was extracted using the […] (Qiagen). The experiment was performed in duplicates and the average result calculated. Primers for real-time PCR were designed using the LightCycler Probe Design Software, version 1.0 (Roche, France). […] Real-time PCR was performed on the LightCycler (Roche, France) using the LightCycler-RNA amplification Kit SYBR Green I (Roche, France). The specificity of the amplification was assessed by electrophoretic separation of the amplified products and melting curve analysis. […] The efficiencies of both amplifications were calculated according to the slope of the standard curves. Relative PRAP expression was quantified after normalisation with GAPDH.

[2] = tested on: PRAP expression in HCT116 cells; test: Real time RT-PCR of PRAP expression in HCT116 cells treated with TSA, DAC or both; type: cell-based, human; conditions: HCT116, 72 h, TSA (300 ng), DAC (1 μm); for PRAPcp-GAPDHcp: crossing point of PRAP normalized by GAPDH: untreated 13.97
Protocol: as §1

[3] = tested on: PRAP gene expression in HT29 cells; test: Northern blot of PRAP gene expression in butyrate-treated HT29 cells; type: cell-based, human; conditions: HT29, 5 mM butyrate
Protocol: The HT29, HCT116, HepG2 and HeLa cell lines were purchased from American Type Culture Collection (Manassas, Va.). HT29 and HCT116 cells were cultured in McCoy's 5A (Sigma Chemical Co., St. Louis, Mo.), HepG2 in DMEM and HeLa in RPMI, all supplemented with 10% fetal bovine serum (Life Technologies, Inc., Gaithersburg, Md.), at 37° C. in a 5% CO2 humidified atmosphere. Cells were treated with 5 mM sodium butyrate (final concentration in media; Life Technologies, Inc) or vehicle. Total RNA was prepared from the cells at the respective time points from three separate flasks.
In a separate experiment, total RNA from tissues and cell lines was prepared using the guanidinium thiocyanate method as previously described (MacDonald et al., 1987). 15 μg of RNA was separated by formaldehyde/agarose gel electrophoresis, transferred to nylon membrane (Qiabrane, Qiagen, Hilden, Germany), cross-linked (Stratalinker, Stratagene, La Jolla, Calif.), and hybridised to cDNA probes, as previously described (Wang et al., 1999). […] Relative mRNA levels were quantified by Typhoon phospho-imager (Amersham Bioscience, UK) and normalised against 18S levels. Normal/Tumour (N/T) ratios were obtained by dividing the normalised relative densitometric units of the normal mucosa by tumour.

[4] = tested on: PRAP expression in HT29 cells; test: Western blot of PRAP expression in HT29 cells at different butyrate concentrations; type: cell-based, human
Excerpt: Cells or tissues were extracted with RIPA buffer (1×PBS, 1% Nonidet P-40, 0.5% sodium deoxychelate and 0.1% SDS. Protease inhibitors: PMSF, aprotinin, pepstatin A and leupeptin were freshly added to the RIPA buffer at the point of usage). […] The secondary antibody was either HRP-conjugated anti-rabbit IgG (BioRad, Hercules, Calif., 1:10,000) or HRP-conjugated anti-mouse antibody (Santa Cruz Biotechnology, Santa Cruz, Calif., 1:20,000). The proteins were visualized using the SuperSignal® West Dura Extended (Pierce) chemiluminescent substrate and exposed to an autoradiograph film.

HeLa cells [5] = test: Cell numbers after transfection (overexpression) in HeLa cells, haemocytometer count after Trypan Blue; type: cell-based, human; conditions: 72 h after transfection
Protocol: The cDNA fragment was cloned into pcDNA 3.1. All plasmids were sequenced to confirm identity and exclude mutations. The plasmids were transfected into HepG2 and HeLa cells using Lipofectamine (Invitrogen), according to manufacturer's recommendations. Each experiment was performed in quadruplicates and repeated three times. After 72 h, the cells were harvested and counted by a haemocytometer after Trypan Blue staining. Whole cell extracts were prepared for Western blot analysis as described.

HeLa cells [6] = tested on: HeLa cells
Protocol: (§2) Cells were subjected to selection in 1200 μg/ml G418 and the number of colonies scored manually at the end of 3 weeks.

HT29 cells = conditions: HT29 stable clones, MTT, p<0.01
Protocol: as §2
The colorimetric MTT (3-(4,5-dimethylthiazol-2yl)-2,5-diphenyl-tetrazolium bromide; Sigma) assay was used as a surrogate measure of cell number at various time points. The experiment was performed in replicates of six and repeated twice.

Molecule	Fold of increase of PRAP expression relative to untreated HT29 [1] [fold]	PRAPcp-GAPDHcp: crossing point of PRAP normalized by GAPDH [1]	PRAPcp-GAPDHcp: crossing point of PRAP normalized by GAPDH [2]	Reduction in cell numbers compared to vector-transfected controls (HeLa cells [5])	further results
CC(/C=C/C(=O)NO)=C\[C@@H](C)C(=O)c1ccc(N(C)C)cc1 [TSA, trichostatin A]	8.4	9.38	11.6		Fold of increase of PRAP expression relative to untreated HCT116 [2]: 5.2 fold and 5.17 fold
Nc1ncn([C@H]2C[C@H](O)[C@@H](CO)O2)c(=O)n1 [DAC, 5-aza-2′ deoxycytidine]	8.5	9.37	13.8		
CCCC(=O)[O-].[Na+] [butyrate, sodium butyrate]					PRAP gene expression versus control non-treated cells ([3]; 6 days after treatment): 29 fold; Increase of PRAP gene expression ([3]; within 24 h): 20 fold; Butyrate concentration giving maximal PRAP expression [4]: 2 to 5 mM
Proline-rich acidic protein [PRAP]				55%	Size of colonies compared to controls (HeLa cells [6]; 3 weeks selection in 1200 μg/ml G418): reduction in the size; Reduction in the number of colonies (HeLa cells [6]; 3 weeks selection in 1200 μg/ml G418, versus vector): 50%; Rate of cell growth of stably transfected clones versus vector controls (HT29 cells): significantly lower rate of cell growth
PRAP/-SP: truncated PRAP without signal peptide, amino acid 21 to 151 (protein) VPAPKVPIKMQVKHWPSEQDPEKAWGARVVEPPEKDDQLVVLFPVQKPKLLTTEEKPRGQGRGPILPGTKAWMETEDTLGRVLSPEPDHDSLYHPPPEEDQGEERPRLWVMPNHQVLLGPEEDQDHIYHPQ				did not result in a reduction in cell numbers	
